Measured values taken from US6369066B1, “Substituted 1,3-oxathiolanes with antiviral properties” (BioChem Pharma, Inc., priority 1990, dated 2002).
pIC50: −log10 of the molar value. Converted amounts (≈) assume the structure as drawn.

How the values were obtained:
Type in all cases: cell-based
[1] = test system: cord blood mononuclear cells (CBM); assay: Cytotoxicity (CD50) reported with CBM assay
Experimental: Assays on cord blood mononuclear cells were done substantially as described in Gu et al., J. Virol.
In short, viruses (HTLV-IIIB) that had initially been grown on MT-4 cells were passaged onto phytohemaglutinin-prestimulated cord blood mononuclear cells (CBM). For subsequent analysis, samples of CBM (5×10^5 cells per mL) were pretreated with various concentrations of the different compounds for 4 h and were then inoculated with CBL-grown HIV-1 at a multiplicity of infection of 1.0 in the concentration of the compound used for the pretreatment. Fresh medium, including the appropriate concentration of the compound was added three times weekly, and fresh phytohemaglutinin-prestimulated CBM (5×10^5 cells per mL) were added at 2-day intervals. […] 66: 12-19.

MT-4 = assay: Cell culture inhibitory dose (CCID50) in MT-4; conditions: cell counting, trypan blue exclusion, 7 days post drug treatment
Experimental: (§1) Evaluation of Cell Culture Inhibitory Dose (CCID50)
(§2) Cell growth was determined by cell counting and viability by trypan blue exclusion 7 days post drug treatment. CCID50 is expressed as the drug concentration which inhibits 50% of cell growth.

CBMCs = assay: Cell culture inhibitory dose (CCID50) in CBMCs; conditions: cell counting, trypan blue exclusion, 7 days post drug treatment
Experimental: as §1, §2

MT-4 cells = assay: Formazan (MTT) assay, drug-induced cytotoxicity in uninfected MT-4 cells; conditions: human, 7 days
Experimental: Anti-HIV-1 antiviral activity was determined in MT-4 calls and MT-4 cells that have been made resistant to 3TC™. […] An uninfected cell suspension was prepared in parallel to evaluate drug-induced cytotoxicity. The two suspensions were incubated for 90 minutes at room temperature. Test compounds were serially diluted in 10-fold decrements from 100 μg/ml to 0.01 μg/ml (final concentrations in two 96 well microtitre plates. 20 μl of infected cell suspension were inoculated into each well of one of the plates (anti-viral), while 20 μl of uninfected cell suspension were added to each well of the second plate (cytotoxicity). The plates were then incubated for 7 days at 37° C. After incubation, 10 μl of 3-(4,5-dimethylthiazol-2-yl)-2,5-diphenyltetrazolium bromide (MTT) at 20 mg/ml was added to all wells and the plates incubated for a further 90 minutes at 37° C.
150 μl of 10% (v/v) alcoholic Triton X-100 was then added and the cells resuspended. After 15 minutes at room temperature, the plates were analyzed in a Multiskan MC reader at 405 nm. […] The optical density values for the cytotoxicity controls and the antiviral test wells were graphically plotted and the dose of compounds required to inhibit the conversion of MMT to 50% of the untreated uninfected controls was calculated.

U937 = assay: Cell culture inhibitory dose (CCID50) in U937; conditions: cell counting, trypan blue exclusion, 7 days post drug treatment
Experimental: as §1, §2

HIV-1 IIIB = assay: IC50 in CBMCs with HIV-1 isolate IIIB; conditions: Human immunodeficiency virus 1
Experimental: (§3) In short, viruses (HTLV-IIIB) that had initially been grown on MT-4 cells were passaged onto phytohemaglutinin-prestimulated cord blood mononuclear cells (CBM). For subsequent analysis, samples of CBM (5×10^5 cells per mL) were pretreated with various concentrations of the different compounds for 4 h and were then inoculated with CBL-grown HIV-1 at a multiplicity of infection of 1.0 in the concentration of the compound used for the pretreatment. Fresh medium, including the appropriate concentration of the compound was added three times weekly, and fresh phytohemaglutinin-prestimulated CBM (5×10^5 cells per mL) were added at 2-day intervals. The calculation of IC50 was determined on the basis of RT levels in culture fluids as described in Gao et al., (1992), J. Virol. 66: 12-19.
(§4) Determination of IC50 (μM) in Different Mutated Isolates of HIV-1 in the Presence of Different Antiviral Compounds
(§5) The procedure is similar to the procedure used in the CBM assay, with the exception that constructed virus and construted mutated virus were used.

HIV-1 HXB2D = assay: IC50 in CBMCs with constructed virus HXB2D; conditions: Human immunodeficiency virus 1, read-out: IC50 HXB2D
Experimental: as §3, §4, §5
(§6) The constructed virus HXB2D-65 correspond to the ddC resistance mutation and the constructed virus HXB2D-184 correspond to the 3TC™ and FTC resistance mutation.

CEM = assay: Cell culture inhibitory dose (CCID50) in CEM; conditions: cell counting, trypan blue exclusion, 7 days post drug treatment
Experimental: as §1, §2

H9 = assay: Cell culture inhibitory dose (CCID50) in H9; conditions: cell counting, trypan blue exclusion, 7 days post drug treatment
Experimental: as §1, §2

[2] = test system: HIV-1 HXB2D-184 M→V (3TC™ and FTC resistance mutation); assay: IC50 in CBMCs with constructed mutated virus HXB2D-184; conditions: Human immunodeficiency virus 1, read-out: IC50 HXB2D-184 M→V
Experimental: as §3, §4, §5, §6

HIV-1 strain RF = assay: Formazan (MTT) assay on MT-4 cells, anti-HIV-1 antiviral activity; conditions: Human immunodeficiency virus 1, MT4, 168 h, MT-4 cells infected with HIV-1 strain RF, 7 days, read-out: IC50 (50% anti-viral dose, ID 50%)
Experimental: Formazan Assay on MT-4 and 3TC™-Resistant Cell Lines
Anti-HIV-1 antiviral activity was determined in MT-4 calls and MT-4 cells that have been made resistant to 3TC™. A suspension of cells (approximately 10^6 cells/ml) in RPMI 1640 growth medium was infected with HIV-1 strain RF at a M.O.I. of 10^−3 infectious units/cell. An uninfected cell suspension was prepared in parallel to evaluate drug-induced cytotoxicity. The two suspensions were incubated for 90 minutes at room temperature. Test compounds were serially diluted in 10-fold decrements from 100 μg/ml to 0.01 μg/ml (final concentrations in two 96 well microtitre plates. 20 μl of infected cell suspension were inoculated into each well of one of the plates (anti-viral), while 20 μl of uninfected cell suspension were added to each well of the second plate (cytotoxicity). The plates were then incubated for 7 days at 37° C. After incubation, 10 μl of 3-(4,5-dimethylthiazol-2-yl)-2,5-diphenyltetrazolium bromide (MTT) at 20 mg/ml was added to all wells and the plates incubated for a further 90 minutes at 37° C.
150 μl of 10% (v/v) alcoholic Triton X-100 was then added and the cells resuspended. After 15 minutes at room temperature, the plates were analyzed in a Multiskan MC reader at 405 nm. Conversion of yellow MMT to its formazan derivative is maximum in uninfected cells, and absent in untreated infected cells. The optical density values for the cytotoxicity controls and the antiviral test wells were graphically plotted and the dose of compounds required to inhibit the conversion of MMT to 50% of the untreated uninfected controls was calculated. In this way, both the 50% cytotoxic dose (CD 50%) and the 50% anti-viral dose (ID 50%) can be calculated.

[3] = test system: HIV-1 HXB2D-65 K→R (ddC resistance mutation); assay: IC50 in CBMCs with constructed mutated virus HXB2D-65; conditions: Human immunodeficiency virus 1, read-out: IC50 HXB2D-65 K→R
Experimental: as §3, §4, §5, §6

Jurkat = assay: Cell culture inhibitory dose (CCID50) in Jurkat; conditions: cell counting, trypan blue exclusion, 7 days post drug treatment
Experimental: as §1, §2

SMILES	CD50 [1] [µg/mL]	CCID50 MT-4 (MT-4) [µM]	CCID50 CBMCs (CBMCs) [µM]	CD50 (50% cytotoxic dose) (MT-4 cells) [µg/mL]	CCID50 U937 (U937) [µM]	pIC50 (HIV-1 IIIB)	pIC50 (HIV-1 HXB2D)	CCID50 CEM (CEM) [µM]	CCID50 H9 (H9) [µM]	pIC50 [2]	IC50 (HIV-1 strain RF) [µg/mL]	pIC50 [3]	CCID50 Jurkat (Jurkat) [µM]
Nc1ccn([C@@H]2CO[C@H](CO)S2)c(=O)n1 [Compound #2, 2S-hydroxymethyl-4S-(cytosin-1′-yl)-1,3-oxathiolane]	>23	>500	105	>100	22	6.55	7.00	103	>500	5.52	4.4 (≈ 19.2 µM)	5.46	11
Nc1nc(=O)n([C@H]2CO[C@@H](CO)S2)cc1F [compound 3, 2R-hydroxymethyl-4R-(5′-fluorocytosin-1′-yl)-1,3-oxathiolane]	>23	>500	>500	>100	>500	6.08	5.52	>500	>500	5.05	6 (≈ 24.3 µM)	4.94	>500
Nc1nc(=O)n([C@@H]2CO[C@H](CO)S2)cc1F [compound 4, 2S-hydroxymethyl-4S-(5′-fluorocytosin-1′-yl)-1,3-oxathiolane]	>23	>500	>500	100	>500	6.47	5.52	>500	>500	5.70	2.9 (≈ 11.7 µM)	5.19	>500
